Consider 16 molecules from ChEMBL document CHEMBL3091325, “New aminopyrimidine derivatives as inhibitors of the TAM family” (Eur J Med Chem, 2013).

The target in test [1] is T1, Tyrosine-protein kinase receptor TYRO3 (Homo sapiens) (UniProt Q06418).
T1 sequence (whole entry): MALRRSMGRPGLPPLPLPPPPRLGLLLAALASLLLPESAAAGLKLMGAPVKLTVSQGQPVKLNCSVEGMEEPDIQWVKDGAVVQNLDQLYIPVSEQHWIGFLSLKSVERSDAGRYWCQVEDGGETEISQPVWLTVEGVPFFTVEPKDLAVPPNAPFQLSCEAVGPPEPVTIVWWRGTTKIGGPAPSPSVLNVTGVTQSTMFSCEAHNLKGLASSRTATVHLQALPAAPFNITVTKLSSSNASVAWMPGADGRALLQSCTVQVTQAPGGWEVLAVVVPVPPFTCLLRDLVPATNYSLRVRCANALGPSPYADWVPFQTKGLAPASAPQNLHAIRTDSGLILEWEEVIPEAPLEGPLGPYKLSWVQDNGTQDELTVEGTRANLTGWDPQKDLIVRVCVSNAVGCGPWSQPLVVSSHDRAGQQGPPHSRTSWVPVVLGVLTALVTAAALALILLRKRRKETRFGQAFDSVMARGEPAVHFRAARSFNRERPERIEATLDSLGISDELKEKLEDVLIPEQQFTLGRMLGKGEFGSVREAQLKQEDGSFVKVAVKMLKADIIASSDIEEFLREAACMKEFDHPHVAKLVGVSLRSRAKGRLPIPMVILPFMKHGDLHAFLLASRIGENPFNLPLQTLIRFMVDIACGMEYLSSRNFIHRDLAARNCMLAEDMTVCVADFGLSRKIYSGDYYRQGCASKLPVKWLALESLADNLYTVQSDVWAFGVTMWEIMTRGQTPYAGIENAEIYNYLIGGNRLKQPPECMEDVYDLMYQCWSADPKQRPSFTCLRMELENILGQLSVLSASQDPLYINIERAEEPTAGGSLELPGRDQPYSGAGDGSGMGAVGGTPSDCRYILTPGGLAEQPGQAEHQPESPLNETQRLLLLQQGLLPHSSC
In words: Inhibition of recombinant human Tyro3 kinase domain using poly (Glu, Ala, Tyr) as substrate up to 50 uM after 1.5 hrs by ELISA. Background: ELISA stands for enzyme-linked immunosorbent assay.

Test [2] concerns the target Tyrosine-protein kinase receptor UFO (Homo sapiens) (UniProt P30530). Put plainly: Inhibition of Axl (unknown origin) at 75 uM relative to control.
Test [3] has as its target Hepatocyte growth factor receptor (Homo sapiens) (UniProt P08581). In words: Inhibition of Met (unknown origin) at 1 uM relative to control.
The target of test [4] is T1, Tyrosine-protein kinase receptor TYRO3 (Homo sapiens). In words: Inhibition of recombinant human Tyro3 kinase domain using poly (Glu, Ala, Tyr) as substrate at 75 uM after 1.5 hrs by ELISA relative to control.
Test [5] addresses Tyrosine-protein kinase ABL1 (Homo sapiens) (UniProt P00519). In words: Inhibition of phosphorylated form of Abl1 (unknown origin) at 0.5 uM relative to control.
The target of test [6] is T2, Tyrosine-protein kinase Mer (Homo sapiens) (UniProt Q12866).
T2 sequence (whole entry): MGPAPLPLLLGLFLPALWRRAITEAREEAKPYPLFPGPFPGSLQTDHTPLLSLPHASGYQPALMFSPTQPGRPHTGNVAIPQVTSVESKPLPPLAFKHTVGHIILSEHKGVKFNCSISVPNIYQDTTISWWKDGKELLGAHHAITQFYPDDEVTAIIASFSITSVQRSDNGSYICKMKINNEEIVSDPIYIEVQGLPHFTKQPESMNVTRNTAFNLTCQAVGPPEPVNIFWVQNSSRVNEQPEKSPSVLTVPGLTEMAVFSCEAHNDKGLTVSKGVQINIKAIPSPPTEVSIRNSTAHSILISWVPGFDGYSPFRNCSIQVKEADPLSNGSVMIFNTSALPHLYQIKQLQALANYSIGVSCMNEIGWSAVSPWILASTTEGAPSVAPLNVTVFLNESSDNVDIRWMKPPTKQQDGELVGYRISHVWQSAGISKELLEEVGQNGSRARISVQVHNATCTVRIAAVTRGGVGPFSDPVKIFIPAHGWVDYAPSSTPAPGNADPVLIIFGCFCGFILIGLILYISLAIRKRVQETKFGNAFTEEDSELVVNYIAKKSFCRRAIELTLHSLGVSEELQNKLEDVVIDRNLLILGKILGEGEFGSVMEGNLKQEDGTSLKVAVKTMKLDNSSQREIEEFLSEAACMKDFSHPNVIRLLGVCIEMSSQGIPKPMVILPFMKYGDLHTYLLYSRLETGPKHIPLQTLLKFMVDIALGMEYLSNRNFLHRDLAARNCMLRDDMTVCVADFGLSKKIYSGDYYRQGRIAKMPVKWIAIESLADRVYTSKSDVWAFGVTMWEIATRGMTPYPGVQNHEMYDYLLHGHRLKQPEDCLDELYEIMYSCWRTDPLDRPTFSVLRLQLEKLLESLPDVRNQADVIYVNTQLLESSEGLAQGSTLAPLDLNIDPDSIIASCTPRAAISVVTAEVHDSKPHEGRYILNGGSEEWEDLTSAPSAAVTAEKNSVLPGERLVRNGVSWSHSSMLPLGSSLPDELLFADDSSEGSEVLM
In words: Inhibition of Mer (unknown origin) at 75 uM relative to control.

For test [7], the target named is Fibroblast growth factor receptor 3 (Homo sapiens) (UniProt P22607). Put plainly: Inhibition of FGFR3 (unknown origin) at 0.5 uM relative to control.
For test [8], the target named is T1, Tyrosine-protein kinase receptor TYRO3 (Homo sapiens). Put plainly: Inhibition of recombinant human Tyro3 kinase domain using poly (Glu, Ala, Tyr) as substrate at 0.5 uM after 1.5 hrs by ELISA relative to control.
Test [9] addresses Tyrosine-protein kinase ABL1 (Homo sapiens) (UniProt P00519). In words: Inhibition of phosphorylated form of Abl1 (unknown origin) at 75 uM relative to control.
The target is the same in test [10]. Put plainly: Inhibition of non-phosphorylated form of Abl1 (unknown origin) at 75 uM relative to control.
In test [11] the target is T2, Tyrosine-protein kinase Mer (Homo sapiens). Put plainly: Inhibition of Mer (unknown origin) at 0.5 uM relative to control.
In test [12] the target is Hepatocyte growth factor receptor (Homo sapiens) (UniProt P08581). In words: Inhibition of Met (unknown origin) at 0.5 uM relative to control.
Test [13] concerns the target Tyrosine-protein kinase ABL1 (Homo sapiens) (UniProt P00519). Put plainly: Inhibition of phosphorylated form of Abl1 (unknown origin) at 1 uM relative to control.
Test [14] deals with T2, Tyrosine-protein kinase Mer (Homo sapiens). Put plainly: Inhibition of Mer (unknown origin) at 1 uM relative to control.
Test [15] deals with Tyrosine-protein kinase ABL1 (Homo sapiens) (UniProt P00519). Put plainly: Inhibition of non-phosphorylated form of Abl1 (unknown origin) at 1 uM relative to control.
Test [16] has the same target. Put plainly: Inhibition of non-phosphorylated form of Abl1 (unknown origin) at 0.5 uM relative to control.
Test [17] addresses Fibroblast growth factor receptor 3 (Homo sapiens) (UniProt P22607). Put plainly: Inhibition of FGFR3 (unknown origin) at 75 uM relative to control.
The target of test [18] is Hepatocyte growth factor receptor (Homo sapiens) (UniProt P08581). Put plainly: Inhibition of Met (unknown origin) at 75 uM relative to control.
Test [19] concerns the target T1, Tyrosine-protein kinase receptor TYRO3 (Homo sapiens). In words: Inhibition of recombinant human Tyro3 kinase domain using poly (Glu, Ala, Tyr) as substrate at 1 uM after 1.5 hrs by ELISA relative to control.
Test [20] concerns the target Tyrosine-protein kinase receptor UFO (Homo sapiens) (UniProt P30530). Put plainly: Inhibition of Axl (unknown origin) at 0.5 uM relative to control.
The target in test [21] is Fibroblast growth factor receptor 3 (Homo sapiens) (UniProt P22607). Put plainly: Inhibition of FGFR3 (unknown origin) at 1 uM relative to control.
Test [22] has as its target Tyrosine-protein kinase receptor UFO (Homo sapiens) (UniProt P30530). Put plainly: Inhibition of Axl (unknown origin) at 1 uM relative to control.

SMILES strings stand for the structures. Calls of active or inactive are those of the source. The calls are words filed in the database; no cut-off is given here.

Chain of Tyrosine-protein kinase ABL1 (Homo sapiens) (P00519 whole entry): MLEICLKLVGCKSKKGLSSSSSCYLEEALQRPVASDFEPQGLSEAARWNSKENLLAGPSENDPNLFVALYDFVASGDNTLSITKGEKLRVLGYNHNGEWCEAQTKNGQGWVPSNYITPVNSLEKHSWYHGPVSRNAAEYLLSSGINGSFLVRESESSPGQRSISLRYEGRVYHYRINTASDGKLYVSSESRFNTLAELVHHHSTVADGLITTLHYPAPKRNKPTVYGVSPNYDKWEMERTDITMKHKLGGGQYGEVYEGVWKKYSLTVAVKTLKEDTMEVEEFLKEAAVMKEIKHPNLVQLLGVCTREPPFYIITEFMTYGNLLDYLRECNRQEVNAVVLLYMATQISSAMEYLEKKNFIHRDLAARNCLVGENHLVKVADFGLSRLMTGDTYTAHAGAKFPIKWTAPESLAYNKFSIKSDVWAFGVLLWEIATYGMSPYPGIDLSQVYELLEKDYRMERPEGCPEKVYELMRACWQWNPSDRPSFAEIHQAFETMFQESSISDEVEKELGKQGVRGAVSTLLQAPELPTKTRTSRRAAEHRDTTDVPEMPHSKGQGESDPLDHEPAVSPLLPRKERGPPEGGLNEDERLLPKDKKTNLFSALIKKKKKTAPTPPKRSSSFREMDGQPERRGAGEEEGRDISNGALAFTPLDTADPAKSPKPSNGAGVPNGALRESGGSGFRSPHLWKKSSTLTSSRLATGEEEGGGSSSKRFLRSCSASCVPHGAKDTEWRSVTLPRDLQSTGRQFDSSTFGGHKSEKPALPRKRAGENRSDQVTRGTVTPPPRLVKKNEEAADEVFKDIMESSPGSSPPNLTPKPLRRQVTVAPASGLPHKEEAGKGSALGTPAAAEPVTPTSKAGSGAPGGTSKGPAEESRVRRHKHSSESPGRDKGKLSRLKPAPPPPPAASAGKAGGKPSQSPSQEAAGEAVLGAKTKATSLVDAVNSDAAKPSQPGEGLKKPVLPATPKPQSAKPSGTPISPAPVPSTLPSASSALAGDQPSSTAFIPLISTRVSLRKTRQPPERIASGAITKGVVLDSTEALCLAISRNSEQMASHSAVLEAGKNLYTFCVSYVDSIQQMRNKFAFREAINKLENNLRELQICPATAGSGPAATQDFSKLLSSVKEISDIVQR
Chain of Fibroblast growth factor receptor 3 (Homo sapiens) (P22607 23-806 limits assumed): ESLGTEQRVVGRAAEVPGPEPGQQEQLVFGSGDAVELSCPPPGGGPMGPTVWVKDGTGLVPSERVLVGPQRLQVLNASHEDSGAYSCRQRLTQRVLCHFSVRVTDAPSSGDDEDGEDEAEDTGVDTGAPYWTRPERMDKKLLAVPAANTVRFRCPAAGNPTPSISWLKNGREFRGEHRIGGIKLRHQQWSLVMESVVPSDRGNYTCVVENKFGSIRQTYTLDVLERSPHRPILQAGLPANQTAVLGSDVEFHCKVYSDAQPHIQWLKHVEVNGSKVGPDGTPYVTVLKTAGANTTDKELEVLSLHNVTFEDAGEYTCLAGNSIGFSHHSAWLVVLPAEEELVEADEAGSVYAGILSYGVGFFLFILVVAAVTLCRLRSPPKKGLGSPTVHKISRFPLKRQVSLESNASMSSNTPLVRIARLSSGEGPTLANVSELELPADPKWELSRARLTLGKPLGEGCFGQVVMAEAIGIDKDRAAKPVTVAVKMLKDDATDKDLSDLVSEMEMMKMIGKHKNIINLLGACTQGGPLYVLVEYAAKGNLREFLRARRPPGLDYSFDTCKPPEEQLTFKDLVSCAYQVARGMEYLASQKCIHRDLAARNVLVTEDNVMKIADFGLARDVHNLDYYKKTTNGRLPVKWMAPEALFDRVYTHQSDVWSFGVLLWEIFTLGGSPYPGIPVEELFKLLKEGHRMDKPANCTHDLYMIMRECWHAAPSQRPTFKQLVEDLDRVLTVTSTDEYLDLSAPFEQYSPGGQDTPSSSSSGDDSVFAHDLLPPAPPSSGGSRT
Chain of Hepatocyte growth factor receptor (Homo sapiens) (P08581 whole entry, the tested form may be a part): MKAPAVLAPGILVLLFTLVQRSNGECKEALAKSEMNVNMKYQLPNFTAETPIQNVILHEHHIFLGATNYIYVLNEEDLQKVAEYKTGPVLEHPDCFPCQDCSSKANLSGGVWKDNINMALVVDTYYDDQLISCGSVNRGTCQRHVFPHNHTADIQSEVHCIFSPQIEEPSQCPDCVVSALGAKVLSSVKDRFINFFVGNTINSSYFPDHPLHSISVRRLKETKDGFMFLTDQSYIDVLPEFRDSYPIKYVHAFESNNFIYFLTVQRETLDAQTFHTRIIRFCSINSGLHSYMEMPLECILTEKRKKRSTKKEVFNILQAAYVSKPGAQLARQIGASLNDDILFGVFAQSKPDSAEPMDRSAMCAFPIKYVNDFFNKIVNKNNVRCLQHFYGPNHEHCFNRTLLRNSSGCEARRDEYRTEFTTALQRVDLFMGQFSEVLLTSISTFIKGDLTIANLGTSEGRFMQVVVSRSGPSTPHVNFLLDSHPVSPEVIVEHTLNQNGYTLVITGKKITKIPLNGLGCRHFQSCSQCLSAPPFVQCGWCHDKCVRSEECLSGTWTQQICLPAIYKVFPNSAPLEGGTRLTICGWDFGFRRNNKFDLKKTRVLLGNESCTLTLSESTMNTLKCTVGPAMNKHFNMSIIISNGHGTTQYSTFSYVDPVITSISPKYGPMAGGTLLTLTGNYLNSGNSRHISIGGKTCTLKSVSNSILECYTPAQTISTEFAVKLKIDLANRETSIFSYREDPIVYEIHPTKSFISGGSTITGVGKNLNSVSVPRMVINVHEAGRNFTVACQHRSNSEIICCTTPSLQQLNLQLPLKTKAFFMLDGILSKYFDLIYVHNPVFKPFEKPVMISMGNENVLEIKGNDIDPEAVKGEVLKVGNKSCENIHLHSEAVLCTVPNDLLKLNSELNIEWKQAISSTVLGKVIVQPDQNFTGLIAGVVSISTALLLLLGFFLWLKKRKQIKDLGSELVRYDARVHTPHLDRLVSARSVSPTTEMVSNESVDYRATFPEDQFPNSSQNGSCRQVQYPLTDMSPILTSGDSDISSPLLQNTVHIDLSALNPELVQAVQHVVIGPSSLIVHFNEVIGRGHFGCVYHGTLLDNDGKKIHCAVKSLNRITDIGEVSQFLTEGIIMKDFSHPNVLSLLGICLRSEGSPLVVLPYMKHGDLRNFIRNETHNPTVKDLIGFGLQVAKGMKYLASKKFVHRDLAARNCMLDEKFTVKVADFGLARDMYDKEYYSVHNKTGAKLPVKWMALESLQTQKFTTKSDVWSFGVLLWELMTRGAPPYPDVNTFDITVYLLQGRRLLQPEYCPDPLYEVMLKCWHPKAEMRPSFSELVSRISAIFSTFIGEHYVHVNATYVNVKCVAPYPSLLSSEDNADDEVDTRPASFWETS
Chain of Tyrosine-protein kinase receptor UFO (Homo sapiens) (P30530 whole entry): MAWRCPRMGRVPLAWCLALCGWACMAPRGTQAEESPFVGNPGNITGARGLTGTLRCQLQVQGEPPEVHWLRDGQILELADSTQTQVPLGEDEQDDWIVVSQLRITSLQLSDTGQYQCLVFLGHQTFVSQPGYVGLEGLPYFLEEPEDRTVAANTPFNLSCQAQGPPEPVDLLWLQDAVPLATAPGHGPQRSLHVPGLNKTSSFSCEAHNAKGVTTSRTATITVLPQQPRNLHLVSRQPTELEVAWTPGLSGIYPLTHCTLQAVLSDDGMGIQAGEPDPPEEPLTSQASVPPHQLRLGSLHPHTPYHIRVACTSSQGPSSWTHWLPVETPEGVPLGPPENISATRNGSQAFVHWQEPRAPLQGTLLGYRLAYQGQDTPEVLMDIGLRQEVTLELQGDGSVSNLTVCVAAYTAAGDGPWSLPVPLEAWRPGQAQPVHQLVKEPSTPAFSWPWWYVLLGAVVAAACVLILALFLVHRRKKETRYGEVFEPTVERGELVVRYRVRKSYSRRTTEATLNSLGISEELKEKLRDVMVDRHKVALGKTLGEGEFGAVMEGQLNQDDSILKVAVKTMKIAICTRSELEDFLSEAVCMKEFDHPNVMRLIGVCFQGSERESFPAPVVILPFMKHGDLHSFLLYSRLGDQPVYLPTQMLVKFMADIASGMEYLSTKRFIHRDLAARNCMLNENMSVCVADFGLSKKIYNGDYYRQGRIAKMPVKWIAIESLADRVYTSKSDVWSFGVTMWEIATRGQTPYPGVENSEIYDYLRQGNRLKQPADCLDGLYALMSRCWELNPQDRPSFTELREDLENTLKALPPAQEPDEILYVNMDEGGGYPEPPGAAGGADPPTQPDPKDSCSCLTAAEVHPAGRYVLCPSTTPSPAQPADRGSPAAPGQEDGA

For the molecule `COc1ccc(-n2cccc(C(=O)Nc3ccc(Oc4cc(On5nnc6ccccc65)ncn4)c(F)c3)c2=O)c(F)c1`, the inhibition (commonly the change of the read-out against control, counted positive when it falls) in test [1] was “inactive”.

Turning to `Nc1cc(Oc2ccc(NC(=O)c3cccn(-c4ccc(F)cc4F)c3=O)cc2F)ncn1`, the inhibition turned out to be 100% in [2]; 97% in test [3]; 100% in test [4]; 8% in [5]; 87% in [6]; 0% in test [7]. In addition, the inhibition in test [8] is 27%; in test [9] it was 21%; in [10] it was 85%; in test [11] it was 50%; in [12] it was 91%; in [13], 4%. For the same molecule, the inhibition in test [14] is 71%; in test [15], 37%; in [16], 25%; in test [17], 9%; in [18], 99%; in test [19] it was 63%. For the same molecule, the inhibition in [20] amounted to 74%; in [21], 0%; in test [22], 93%.

On to `Nc1cc(Oc2ccc(NC(=O)c3cccn(-c4ccc(F)c(F)c4)c3=O)cc2F)ncn1`, for which the inhibition entry in test [1] is “inactive”.

As to `O=C(Nc1ccc(Oc2cc(On3nnc4ccccc43)ncn2)c(F)c1)c1cccn(-c2ccc(F)cc2)c1=O`, the inhibition result in [1] is “inactive”.

For `COc1ccc(CNc2nccc(Oc3ccc(NC(=O)c4cccn(-c5ccc(F)cc5)c4=O)cc3F)n2)cc1`, the inhibition result in test [1] was “inactive”.

As for `O=C(Nc1ccc(Oc2cc(On3nnc4ccccc43)ncn2)c(F)c1)c1cccn(-c2ccc(F)c(F)c2)c1=O`, the inhibition entry in test [1] is “inactive”.

`CNc1cc(Oc2ccc(NC(=O)c3cccn(-c4ccc(F)cc4)c3=O)cc2F)ncn1`: the inhibition entry in test [1] was “inactive”.

Take `CNc1nccc(Oc2ccc(NC(=O)c3cccn(-c4ccc(F)cc4)c3=O)cc2F)n1`: in [1], the inhibition entry is “inactive”.

On to `O=C(Nc1ccc(Oc2cc(On3nnc4ccccc43)ncn2)c(F)c1)c1cccn(-c2ccc(F)cc2F)c1=O`, for which the inhibition entry in test [1] is “inactive”.

On to `O=C(Nc1ccc(Oc2ncnc3[nH]cnc23)c(F)c1)c1cccn(-c2ccc(F)cc2)c1=O`, for which the inhibition stood at 98% in [2]; 98% in [3]; 100% in test [4]; 0% in test [5]; 0% in test [7]; 73% in test [8]. Moreover, the inhibition in test [9] is 20%; in test [10], 66%; in test [11] it was 77%; in test [12] it was 93%; in test [13], 0%; in test [14], 93%. The inhibition in [15] stood at 32%; in test [16] it was 17%; in test [17], 16%; in [18], 95%; in test [19], 94%; in test [20] it was 98%. For the same molecule, the inhibition was 0% in [21] and 100% in test [22].

On to `Cc1cc(F)ccc1-n1cccc(C(=O)Nc2ccc(Oc3cc(On4nnc5ccccc54)ncn3)c(F)c2)c1=O`, for which the inhibition entry in test [1] was “inactive”.

As for `O=C(Nc1ccc(Oc2cc(Cl)ncn2)c(F)c1)c1cccn(-c2ccc(F)cc2)c1=O`, the inhibition result in test [1] is “inactive”.

Take `CCOc1ccn(-c2ccc(F)cc2)c(=O)c1C(=O)Nc1ccc(Oc2ccnc(N)c2Cl)c(F)c1`: the inhibition in [2] is 99%; in [3], 95%; in test [4] it was 92%; in [6] it was 95%; in [7], 0%; in test [8], 96%. Besides, the inhibition in test [10] was 100%; in test [11], 98%; in test [13], 35%; in [14], 98%; in test [15], 98%; in test [17], 0%. For the same molecule, the inhibition turned out to be 99% in test [19], 99% in test [20], 0% in test [21] and 99% in [22].

Consider `COc1ccc(CNc2cc(Oc3ccc(NC(=O)c4cccn(-c5ccc(F)cc5)c4=O)cc3F)ncn2)cc1`, for which, in [1], the inhibition entry was “inactive”.

As to `Nc1nccc(Oc2ccc(NC(=O)c3cccn(-c4ccc(F)cc4)c3=O)cc2F)n1`, the inhibition in test [2] worked out at 100%; in test [3], 100%; in test [5], 0%; in [7], 0%; in test [8], 61%; in [9] it was 30%. The inhibition turned out to be 32% in [10]; 94% in test [11]; 99% in test [12]; 0% in test [13]; 95% in test [14]; 50% in [15]. Moreover, the inhibition in [16] came out at 27%; in test [17] it was 12%; in [18], 99%; in test [19] it was 75%; in test [20], 96%; in test [21] it was 0%. The molecule also displayed an inhibition in [22] of 100%.

With `COc1ccc(-n2cccc(C(=O)Nc3ccc(Oc4cc(N)ncn4)c(F)c3)c2=O)c(F)c1`, the inhibition result in test [1] is “inactive”.
